Laboratory results published in patent US20050124963A1, “Method for treating aspects of alcoholism, addiction and psychosis” (priority 2003, published 2005).
Read-outs that look alike come from different tables or passages of the source.

Key:
D2 receptor = D2 receptor (Homo sapiens, UniProt P14416); conditions: 1-100 nM dopamine, in vitro; cited from earlier work
striatal D2 receptors = biological target: T1, striatal D2 receptors (Rattus norvegicus, UniProt P61169); test: [3H]PHNO binding to striatal D2 receptors; conditions: control striata
T1 construct: each rat underwent CO2 narcosis and cervical dislocation; the striata were removed; from tissue; host or cells: rat striatum (male Sprague Dawley)
T1 sequence (P61169 whole entry): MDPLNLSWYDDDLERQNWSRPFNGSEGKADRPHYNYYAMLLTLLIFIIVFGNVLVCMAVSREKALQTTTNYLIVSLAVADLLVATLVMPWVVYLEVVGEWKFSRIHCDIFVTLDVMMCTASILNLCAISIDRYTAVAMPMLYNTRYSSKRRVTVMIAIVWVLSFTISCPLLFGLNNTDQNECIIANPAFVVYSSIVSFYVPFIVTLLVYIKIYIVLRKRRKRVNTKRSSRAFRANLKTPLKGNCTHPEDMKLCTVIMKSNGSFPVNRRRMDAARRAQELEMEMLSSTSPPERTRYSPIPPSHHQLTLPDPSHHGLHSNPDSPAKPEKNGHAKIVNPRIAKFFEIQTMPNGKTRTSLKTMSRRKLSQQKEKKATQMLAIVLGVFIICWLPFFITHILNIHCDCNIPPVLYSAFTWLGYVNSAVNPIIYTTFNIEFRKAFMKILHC
Method: To induce ethanol dependence, rats (male Sprague Dawley, 200 g) received an intraperitoneal injection of 0.9% NaCl or 2 g/kg ethanol twice daily (i.e., 1.4 ml of 18% ethanol [in 0.9% NaCl] per 100 g at 9 AM and again at 3 PM daily) for 10 days (Lindholm et al., Alcohol 22: 165-171, 2000). On different days during the withdrawal period, each rat underwent CO2 narcosis and cervical dislocation; the striata were removed. The frozen (−70° C.) striata were blotted and weighed. […] The binding of [^3H]PHNO (or [+]-4-propyl-9-hydroxynaphthoxazine) (0.1 to 4.5 nM; […]; custom synthesized by New England Nuclear Corp.; non-specific binding defined by 10 μM S-(−)-sulpiride) to striatal D2 receptors was done as reported elsewhere (Seeman et al., Synapse 14: 254-262, 1993; Synapse 46: 235-239, 2002).
To confirm the elevation of D2^High sites by another method, [^3H]PHNO (or [+]-4-propyl-9-hydroxynaphthoxazine), a selective D2 agonist (Seeman et al., Synapse 14: 254-262, 1993) can be used.

[1] = tested on: high-affinity states of D2; conditions: rats sensitized to amphetamine; cited from earlier work
[2] = biological target: T2, high-affinity state of dopamine D2 receptor (D2High) (Rattus norvegicus, UniProt P61169)
T2 sequence (P61169 whole entry): as above

[3] = biological target: T2, high-affinity state of dopamine D2 receptor (D2High); conditions: 7 days withdrawal, [3H]PHNO
[4] = tested on: high-affinity state of dopamine D2 receptor (D2High); assay type: in vivo, rat
[5] = first eight days after stopping ethanol, [3H]raclopride

D2 receptor, sequence (P14416 whole entry): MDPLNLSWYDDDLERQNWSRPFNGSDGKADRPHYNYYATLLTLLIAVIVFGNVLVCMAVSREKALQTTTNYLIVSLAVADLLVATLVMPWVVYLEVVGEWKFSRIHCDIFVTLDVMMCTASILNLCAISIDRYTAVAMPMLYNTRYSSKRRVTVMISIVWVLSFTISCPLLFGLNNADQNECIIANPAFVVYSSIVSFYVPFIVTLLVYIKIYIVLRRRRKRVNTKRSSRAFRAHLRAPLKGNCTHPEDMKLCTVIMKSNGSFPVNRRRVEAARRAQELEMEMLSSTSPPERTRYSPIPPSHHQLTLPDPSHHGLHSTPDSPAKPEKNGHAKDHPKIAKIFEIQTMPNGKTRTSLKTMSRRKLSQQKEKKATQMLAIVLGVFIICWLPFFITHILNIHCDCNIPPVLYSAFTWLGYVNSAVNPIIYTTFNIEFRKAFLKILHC

CCN1CCC[C@H]1CNC(=O)c1c(O)c(Cl)cc(Cl)c1OC (racemic) [[^3H]raclopride]
displacement by low concentrations of dopamine (D2 receptor): not significantly displaced

CCCN1CCOC2c3cc(O)ccc3CCC21 (stereo not drawn) [[^3H]PHNO, [+]-4-propyl-9-hydroxynaphthoxazine]
Kd (striatal D2 receptors): 0.71 nM

CC(N)Cc1ccccc1 (stereo not drawn) [amphetamine]
elevation of high-affinity states of D2 [1]: over 350%

CCO [ethanol]
duration of elevation of D2High sites after ethanol withdrawal ([2]; before returning to normal): almost two weeks | D2High sites ([2]; day 15 after stopping ethanol (back to normal)): ≤ 2 pmol/g | D2High sites ([2]; days 11 and 12 after stopping ethanol): 4.8 pmol/g | increase in D2High ([2]; ethanol-withdrawn): 3.2 fold | D2 density ([2]; first eight days after stopping ethanol (2 g/kg i.p. twice daily, 10 days), [3H]raclopride, no guanilylimidodiphosphate): 19 ± 0.8 pmol/g | D2High density (increase in receptor density with guanilylimidodiphosphate) [2, 5]: 7.2 ± 0.6 pmol/g | D2 density in the presence of guanilylimidodiphosphate [2, 5]: 26.1 ± 0.8 pmol/g | increase of D2High over control value of 2 pmol/g ([2]; upon withdrawal of ethanol, [3H]raclopride): 360% | increase of D2High over control value of 2.6 pmol/g [3]: 273% | D2High ([3]; ethanol-treated striata): 7.1 pmol/g

FC(F)OC(Cl)C(F)(F)F (stereo not drawn) [isoflurane]
D2High density ([4]; ethanol-treated rats five days into withdrawal, isoflurane one hour (deep stage 3 surgical anesthesia), striata 24 hours later): 1.3 pmol/g | effect on elevated D2High ([4]; one hour of deep general anesthesia, ethanol-withdrawn rats): restored D2^High to normal
